Data: PMC6749325, “Hybrids of Cinchona Alkaloids and Bile Acids as Antiparasitic Agents Against Trypanosoma cruzi” (Molecules, 2019)
≈ marks a conversion by molar mass, not a printed value.

System: T. brucei
Assay: not given
Design: method as in PMID 23816880
Conditions: compared with the commercial drug suramin; cited from earlier work

Row | Compound | trypanocidal activity against T. brucei, IC50
1 | C=CC1CN2CCC1CC2C(O)c1cc(CCC(C)C2CCC3C4C(O)CC5CC(O)CCC5(C)C4CCC23C)nc2ccc(OC)cc12 (stereo not shown) [Hybrid 5d] | in the same range as the commercial drug suramin
2 | C=CC1CN2CCC1CC2C(O)c1cc(CCC(C)C2CCC3C4C(O)CC5CC(O)CCC5(C)C4CCC23C)nc2ccc(OC)cc12 (stereo not shown) [Hybrid 5b] | in the same range as the commercial drug suramin
3 | C=CC1CN2CCC1CC2C(O)c1cc(CCC(C)C2CCC3C4C(OC(C)=O)CC5CC(OC(C)=O)CCC5(C)C4CCC23C)nc2ccccc12 (stereo not shown) [Hybrid 4h] | in the same range as the commercial drug suramin
4 | C=CC1CN2CCC1CC2C(O)c1cc(CCC(C)C2CCC3C4C(OC(C)=O)CC5CC(OC(C)=O)CCC5(C)C4CCC23C)nc2ccc(OC)cc12 (stereo not shown) [Hybrid 4d] | in the same range as the commercial drug suramin
5 | C=CC1CN2CCC1CC2C(O)c1cc(CCC(C)C2CCC3C4C(O)CC5CC(O)CCC5(C)C4CCC23C)nc2ccccc12 (stereo not shown) [Hybrid 5f] | in the same range as the commercial drug suramin
6 | C=CC1CN2CCC1CC2C(O)c1cc(CCC(C)C2CCC3C4C(OC(C)=O)CC5CC(OC(C)=O)CCC5(C)C4CCC23C)nc2ccccc12 (stereo not shown) [Hybrid 4f] | in the same range as the commercial drug suramin
7 | C=CC1CN2CCC1CC2C(O)c1cc(CCC(C)C2CCC3C4C(O)CC5CC(O)CCC5(C)C4CCC23C)nc2ccccc12 (stereo not shown) [Hybrid 5h] | in the same range as the commercial drug suramin

System: intracellular amastigotes of the Y strain
Assay: Amastigote count in infected NRK cells
Assay type: cell-based, Trypanosoma cruzi
Conditions: hybrid at trypomastigote IC50 for the Y strain, 48 h, compared to untreated infected cells
Text: Not only the genetic diversity among strains should be taken into account while searching for new drugs. Differential susceptibility of the different life cycle stages of the parasite within the same strain [18] should be also considered. In this regard, Bz and Nf effectiveness against axenic epimastigotes and the intracellular stages of T. cruzi have been already reported. […] More importantly, given that in the chronic phase of Chagas disease, current chemotherapy is not efficient and that parasitemia is usually low, performing new drug screenings on the intracellular replicative stage of the parasite appears to be the better approach. To confirm their anti-parasitic activity, nine of the hybrids were evaluated against intracellular amastigotes of the Y strain at the IC50 found for trypomastigotes of the same strain. Briefly, trypomastigotes were incubated with NRK cells and left to infect for two hours. […] Forty-eight hours post infection, cells were fixed and stained, and amastigotes/100 cells were calculated.
Infections were performed as previously described. […] After 48 h of incubation, cells were fixed with 4% formalin, stained with DAPI and photographed in a fluorescence microscope (Olympus). The amastigotes/100 cells were determined counting 1000 cells from each well (3000 cells/compound) using the ImageJ cell counter plugin. […]

Row | Compound | Effect on intracellular amastigotes (amastigotes/100 cells)
8 | C=CC1CN2CCC1CC2C(O)c1cc(CCC(C)C2CCC3C4C(O)CC5CC(O)CCC5(C)C4CCC23C)nc2ccccc12 (stereo not shown) [Hybrid 5f] | significant reduction in intracellular amastigotes
9 | C=CC1CN2CCC1CC2C(O)c1cc(CCC(C)C2CCC3C4C(OC(C)=O)CC5CC(OC(C)=O)CCC5(C)C4CCC23C)nc2ccccc12 (stereo not shown) [Hybrid 4f] | significant reduction in intracellular amastigotes

System: NRK cells
Assay: NRK cell IC50 estimation (cytotoxicity, crystal violet)
Assay type: cell-based
Conditions: 48 h incubation
Protocol: (§1) The NRK and Vero cell lines were routinely maintained in DMEM (Gibco) supplemented with 10% SFB (Natocor) and Penicillin/Streptomicin (100 Units/0.1mg/mL, Sigma) at 37 °C and 5% CO2 atmosphere. The trypomatigotes of T. cruzi strains CL Brener, Y, and RA were routinely maintained in Vero cells cultured in DMEM supplemented with 4% SFB and Penicillin/Streptomicin. The trypomastigotes of each strain were purified from infected Vero cells supernatants and used in the different assays.
1 × 10^5/mL NRK cells were grown overnight in a 96 multi-well plate. The culture medium was replaced by a culture medium containing increasing concentrations of hybrids, control drugs or vehicles, and cells incubated at 37 °C and 5% CO2 for 48 h. Next, cells were washed, fixed for 10 min with cold methanol (Sintorgan), and stained with violet crystal (Sigma 0.5% in methanol). After an exhaustive wash, cells were dried overnight. 10% acetic acid (Biopack) was added to each well, and the absorbance measured at 600 nm. Similarly, a standard curve was prepared (absorbance vs. increasing concentrations of NRK cells) to estimate the NRK IC50 using Graphpad Prism.

Row | Compound | NRK Cells IC50
10 | C=CC1CN2CCC1CC2C(O)c1cc(CCC(C)C2CCC3C4CCC5CC(O)CCC5(C)C4CCC23C)nc2ccc(OC)cc12 (stereo not shown) [Hybrid 5a] | 15.30 ± 4.04 µg/mL
11 | C=CC1CN2CCC1CC2C(O)c1cc(CCC(C)C2CCC3C4C(O)CC5CC(O)CCC5(C)C4CCC23C)nc2ccc(OC)cc12 (stereo not shown) [Hybrid 5d] | 1.59 ± 0.54 µg/mL
12 | C=CC1CN2CCC1CC2C(O)c1cc(CCC(C)C2CCC3C4C(O)CC5CC(O)CCC5(C)C4CCC23C)nc2ccc(OC)cc12 (stereo not shown) [Hybrid 5b] | 5.10 ± 0.76 µg/mL
13 | C=CC1CN2CCC1CC2C(O)c1cc(CCC(C)C2CCC3C4C(OC(C)=O)CC5CC(OC(C)=O)CCC5(C)C4CCC23C)nc2ccccc12 (stereo not shown) [Hybrid 4h] | 6.50 ± 0.28 µg/mL
14 | C=CC1CN2CCC1CC2C(O)c1cc(CCC(C)C2CCC3C4C(OC(C)=O)CC5CC(OC(C)=O)CCC5(C)C4CCC23C)nc2ccc(OC)cc12 (stereo not shown) [Hybrid 4d] | 3.30 ± 0.08 µg/mL
15 | C=CC1CN2CCC1CC2C(O)c1cc(CCC(C)C2CCC3C4C(O)CC5CC(O)CCC5(C)C4CCC23C)nc2ccccc12 (stereo not shown) [Hybrid 5f] | 4.02 ± 0.55 µg/mL
16 | C=CC1CN2CCC1CC2C(O)c1cc(CCC(C)C2CCC3C4C(O)CC5CC(O)CCC5(C)C4CCC23C)nc2ccccc12 (stereo not shown) [Hybrid 5h] | 0.67 ± 0.05 µg/mL

Same assay, conditions: Rattus norvegicus, NRK, 48 h, 48 h incubation

Row | Compound | IC50
17 | C=CC1CN2CCC1CC2C(O)c1cc(CCC(C)C2CCC3C4C(OC(C)=O)CC5CC(OC(C)=O)CCC5(C)C4CCC23C)nc2ccccc12 (stereo not shown) [Hybrid 4f] | 6.69 ± 1.51 µg/mL (≈ 9.23 µM)

System: trypomastigotes of the Y strain released from infected NRK cells
Assay: Trypomastigote release assay
Assay type: cell-based, Trypanosoma cruzi
Conditions: 72 hours of treatment then drug-free medium, vs non-treated control
Text: To fully eliminate the intracellular parasite, a trypanocidal drug action is ideally desired. For trypanostatic drugs, a longer chemotherapy is required to allow the elimination of the intracellular parasite, since the anti-parasitic effect could be reversed upon removal of the drug. In order to characterize the antiparasitic features of the hybrids, our strategy was to remove the hybrids from the medium of infected NRK cells and let the infection develop. In this approach, after the two hour infection of NRK cells with trypomastigotes of the Y strain, compounds were added and left for 72 hours before being replaced with fresh medium without drugs. Six days post infection, the trypomastigotes released to the supernatant were quantified. […]
NRK cells were cultured and treated as described in Section 4.1. […] At day 6 pi, the released trypomastigotes in the supernatant of infected were counted using a Neubauer chamber.
In all cases, 3 independent experiments were done by triplicate. […] The mean ± SD of amastigotes/100 cells or trypomastigote released were calculated and analyzed with one-way ANOVA with Dunnett posttest performed with Graphpad Prism software.

Row | Compound | Trypomastigote count in the supernatant of infected cells at day six post infection
18 | C=CC1CN2CCC1CC2C(O)c1cc(CCC(C)C2CCC3C4C(O)CC5CC(O)CCC5(C)C4CCC23C)nc2ccccc12 (stereo not shown) [Hybrid 5f] | significantly lower than non-treated control
19 | C=CC1CN2CCC1CC2C(O)c1cc(CCC(C)C2CCC3C4C(OC(C)=O)CC5CC(OC(C)=O)CCC5(C)C4CCC23C)nc2ccccc12 (stereo not shown) [Hybrid 4f] | significantly lower than non-treated control

System: T. cruzi CL Brener trypomastigotes
Assay: Trypomastigote IC50 estimation, CL Brener strain
Assay type: cell-based, Trypanosoma cruzi
Conditions: IC50NRK/IC50 parasite, CL Brener trypomastigotes
Protocol: as §1
(§2) 2 × 10^6/mL trypomastigotes were incubated with different concentrations of the hybrids, control drug or vehicle, by triplicate at 37 °C and 5% CO2 for 24 h. Next, trypomastigotes were counted in a Neubauer chamber. The IC50 ± SD (n = 3) were estimated using the “Dose–Response” module in Graphpad Prism.

Row | Compound | Selectivity NRK/T. cruzi (SI)
20 | C=CC1CN2CCC1CC2C(O)c1cc(CCC(C)C2CCC3C4CCC5CC(O)CCC5(C)C4CCC23C)nc2ccc(OC)cc12 (stereo not shown) [Hybrid 5a] | 4.12
21 | C=CC1CN2CCC1CC2C(O)c1cc(CCC(C)C2CCC3C4C(O)CC5CC(O)CCC5(C)C4CCC23C)nc2ccc(OC)cc12 (stereo not shown) [Hybrid 5d] | 3.98
22 | C=CC1CN2CCC1CC2C(O)c1cc(CCC(C)C2CCC3C4C(O)CC5CC(O)CCC5(C)C4CCC23C)nc2ccc(OC)cc12 (stereo not shown) [Hybrid 5b] | 5.67
23 | C=CC1CN2CCC1CC2C(O)c1cc(CCC(C)C2CCC3C4C(OC(C)=O)CC5CC(OC(C)=O)CCC5(C)C4CCC23C)nc2ccccc12 (stereo not shown) [Hybrid 4h] | 9.28
24 | C=CC1CN2CCC1CC2C(O)c1cc(CCC(C)C2CCC3C4C(OC(C)=O)CC5CC(OC(C)=O)CCC5(C)C4CCC23C)nc2ccc(OC)cc12 (stereo not shown) [Hybrid 4d] | 4.58
25 | C=CC1CN2CCC1CC2C(O)c1cc(CCC(C)C2CCC3C4C(OC(C)=O)CC5CC(OC(C)=O)CCC5(C)C4CCC23C)nc2ccccc12 (stereo not shown) [Hybrid 4f] | 13.04
26 | C=CC1CN2CCC1CC2C(O)c1cc(CCC(C)C2CCC3C4C(O)CC5CC(O)CCC5(C)C4CCC23C)nc2ccccc12 (stereo not shown) [Hybrid 5h] | 2.23

Same assay, conditions: Trypanosoma cruzi, 24 h, trypomastigotes, 24 h incubation, IC50 ± SD (n = 3)

Row | Compound | IC50
27 | C=CC1CN2CCC1CC2C(O)c1cc(CCC(C)C2CCC3C4C(O)CC5CC(O)CCC5(C)C4CCC23C)nc2ccccc12 (stereo not shown) [Hybrid 5f] | 0.34 ± 0.03 µg/mL (≈ 0.53 µM)
28 | C=CC1CN2CCC1CC2C(O)c1cc(CCC(C)C2CCC3C4C(OC(C)=O)CC5CC(OC(C)=O)CCC5(C)C4CCC23C)nc2ccccc12 (stereo not shown) [Hybrid 4f] | 0.51 ± 0.06 µg/mL (≈ 0.703 µM)

Same assay, conditions: trypomastigotes, 24 h incubation, IC50 ± SD (n = 3)

Row | Compound | T. cruzi CL Brener IC50
29 | C=CC1CN2CCC1CC2C(O)c1cc(CCC(C)C2CCC3C4CCC5CC(O)CCC5(C)C4CCC23C)nc2ccc(OC)cc12 (stereo not shown) [Hybrid 5a] | 3.71 ± 0.13 µg/mL
30 | C=CC1CN2CCC1CC2C(O)c1cc(CCC(C)C2CCC3C4C(O)CC5CC(O)CCC5(C)C4CCC23C)nc2ccc(OC)cc12 (stereo not shown) [Hybrid 5d] | 0.40 ± 0.05 µg/mL
31 | C=CC1CN2CCC1CC2C(O)c1cc(CCC(C)C2CCC3C4C(O)CC5CC(O)CCC5(C)C4CCC23C)nc2ccc(OC)cc12 (stereo not shown) [Hybrid 5b] | 0.90 ± 0.10 µg/mL
32 | C=CC1CN2CCC1CC2C(O)c1cc(CCC(C)C2CCC3C4C(OC(C)=O)CC5CC(OC(C)=O)CCC5(C)C4CCC23C)nc2ccccc12 (stereo not shown) [Hybrid 4h] | 0.70 ± 0.18 µg/mL
33 | C=CC1CN2CCC1CC2C(O)c1cc(CCC(C)C2CCC3C4C(OC(C)=O)CC5CC(OC(C)=O)CCC5(C)C4CCC23C)nc2ccc(OC)cc12 (stereo not shown) [Hybrid 4d] | 0.72 ± 0.07 µg/mL
34 | C=CC1CN2CCC1CC2C(O)c1cc(CCC(C)C2CCC3C4C(O)CC5CC(O)CCC5(C)C4CCC23C)nc2ccccc12 (stereo not shown) [Hybrid 5h] | 0.30 ± 0.00 µg/mL

System: T. cruzi Y (DTU II) trypomastigotes
Assay: Trypomastigote IC50 estimation, Y strain
Assay type: cell-based, Trypanosoma cruzi
Conditions: 24 h incubation
Protocol: as §1, §2

Row | Compound | T. cruzi Y (DTU II) IC50
35 | C=CC1CN2CCC1CC2C(O)c1cc(CCC(C)C2CCC3C4C(OC(C)=O)CC5CC(OC(C)=O)CCC5(C)C4CCC23C)nc2ccccc12 (stereo not shown) [Hybrid 4h] | ≥2.00 µg/mL
36 | C=CC1CN2CCC1CC2C(O)c1cc(CCC(C)C2CCC3C4C(OC(C)=O)CC5CC(OC(C)=O)CCC5(C)C4CCC23C)nc2ccccc12 (stereo not shown) [Hybrid 4f] | 0.50 ± 0.03 µg/mL

Same assay, conditions: Trypanosoma cruzi, 24 h, 24 h incubation

Row | Compound | IC50
37 | C=CC1CN2CCC1CC2C(O)c1cc(CCC(C)C2CCC3C4C(O)CC5CC(O)CCC5(C)C4CCC23C)nc2ccccc12 (stereo not shown) [Hybrid 5f] | 0.65 ± 0.07 µg/mL (≈ 1.01 µM)

System: T. cruzi RA (DTU VI) trypomastigotes
Assay: Trypomastigote IC50 estimation, RA strain
Assay type: cell-based, Trypanosoma cruzi
Conditions: 24 h incubation
Protocol: as §1, §2

Row | Compound | T. cruzi RA (DTU VI) IC50
38 | C=CC1CN2CCC1CC2C(O)c1cc(CCC(C)C2CCC3C4C(OC(C)=O)CC5CC(OC(C)=O)CCC5(C)C4CCC23C)nc2ccccc12 (stereo not shown) [Hybrid 4h] | 1.50 ± 0.50 µg/mL
39 | C=CC1CN2CCC1CC2C(O)c1cc(CCC(C)C2CCC3C4C(OC(C)=O)CC5CC(OC(C)=O)CCC5(C)C4CCC23C)nc2ccccc12 (stereo not shown) [Hybrid 4f] | 0.25 ± 0.10 µg/mL

Same assay, conditions: Trypanosoma cruzi, 24 h, 24 h incubation

Row | Compound | IC50
40 | C=CC1CN2CCC1CC2C(O)c1cc(CCC(C)C2CCC3C4C(O)CC5CC(O)CCC5(C)C4CCC23C)nc2ccccc12 (stereo not shown) [Hybrid 5f] | 0.31 ± 0.1 µg/mL (≈ 0.484 µM)
